Data on 10 molecules can be found in patent US7378417B2, “Pyrazolo-pyrimidine derivatives” (Hoffmann-La Roche Inc., priority 2004, dated 2008).

In one data set the target is T1, rat mGlu2 receptor (Rattus norvegicus, UniProt P31421).
T1 construct: expressed in transfected cells; host or cells: CHO cells, stably transfected with pcD1mGR2 (G-418 selection); membranes used
The data set is described as follows: [3H]-LY354740 binding on mGlu2 transfected CHO cell membranes. The following applies: displacement of 10 nM [3H]-LY354740, CHO cell membranes, room temperature, 1 hour. The text has this:
[^3H]-LY354740 Binding on mGlu2 Transfected CHO Cell Membranes. Transfection and Cell Culture
cDNA encoding the rat mGlu2 receptor protein in pBluescript II was subcloned into the eukaryotic expression vector pcDNA I-amp from Invitrogen Ltd (Paisley, UK). This vector construct (pcD1mGR2) was co-transfected with a psvNeo plasmid encoding the gene for neomycin resistance, into CHO cells by a modified calcium phosphate method described by Chen & Okayama (1988). The cells were maintained in Dulbecco's Modified Eagle medium with reduced L-glutamine (2 mM final concentration) and 10% dialysed foetal calf serum from Gibco-Invitrogen (Carlsbad, Calif., USA). Selection was made in the presence of G-418 (1000 ug/ml final) and […]. Clones were identified by reverse transcription of 5 μg total RNA, followed by PCR using mGlu2 receptor specific primers 5′-[…]-3′ and 5′-[…]-3′ in 60 mM Tris HCl (pH 10), 15 mM (NH4)2SO4, 2 mM MgCl2, 25 units/ml Taq Polymerase with 30 cycles annealing at 60° C. for 1 min., extention at 72° C. for 30 s, and 1 min. 95° C. denaturation.
Cells, cultured as above, were harvested and washed three times with cold PBS and frozen at −80° C. The pellet was resuspended in cold 20 mM HEPES-NaOH buffer containing 10 mM EDTA (pH 7.4), and homogenised with a polytron (Kinematica, AG, Littau, Switzerland) for 10 s at 10 000 rpm. After centrifugation for 30 min. at 4° C., the pellet was washed once with the same buffer, and once with cold 20 mM HEPES-NaOH buffer containing 0.1 mM EDTA, (pH 7.4). Protein content was measured using the micro BCA method from Pierce-Perbio (Rockford, Ill., USA) using bovine serum albumin as standard.
After thawing, the membranes were resuspended in cold 50 mM Tris-HCl buffer containing 2 mM MgCl2 (pH 7) (binding buffer). The final concentration of the membranes in the assays was 25 μg protein/ml. Inhibition experiments were performed with membranes incubated with 10 nM [^3H]-LY354740 at room temperature, for 1 hour, in presence of various concentrations of the compound to be tested. Following the incubations, membranes were filtered onto Whatmann GF/B glass fiber filters and washed 5 times with cold binding buffer. Non specific binding was measured in the presence of 10 μM DCG IV. After transfer of the filters into plastic vials containing 10 ml of Ultima-gold scintillation fluid from Perkin-Elmer (Boston, Mass., USA), the radioactivity was measured by liquid scintillation in a Tri-Carb 2500 TR counter (Packard, Zürich, Switzerland).
The inhibition curves were fitted with a four parameter logistic equation giving IC50 values, and Hill coefficients.

Molecules are shown by their SMILES.

T1 sequence (P31421 19-872): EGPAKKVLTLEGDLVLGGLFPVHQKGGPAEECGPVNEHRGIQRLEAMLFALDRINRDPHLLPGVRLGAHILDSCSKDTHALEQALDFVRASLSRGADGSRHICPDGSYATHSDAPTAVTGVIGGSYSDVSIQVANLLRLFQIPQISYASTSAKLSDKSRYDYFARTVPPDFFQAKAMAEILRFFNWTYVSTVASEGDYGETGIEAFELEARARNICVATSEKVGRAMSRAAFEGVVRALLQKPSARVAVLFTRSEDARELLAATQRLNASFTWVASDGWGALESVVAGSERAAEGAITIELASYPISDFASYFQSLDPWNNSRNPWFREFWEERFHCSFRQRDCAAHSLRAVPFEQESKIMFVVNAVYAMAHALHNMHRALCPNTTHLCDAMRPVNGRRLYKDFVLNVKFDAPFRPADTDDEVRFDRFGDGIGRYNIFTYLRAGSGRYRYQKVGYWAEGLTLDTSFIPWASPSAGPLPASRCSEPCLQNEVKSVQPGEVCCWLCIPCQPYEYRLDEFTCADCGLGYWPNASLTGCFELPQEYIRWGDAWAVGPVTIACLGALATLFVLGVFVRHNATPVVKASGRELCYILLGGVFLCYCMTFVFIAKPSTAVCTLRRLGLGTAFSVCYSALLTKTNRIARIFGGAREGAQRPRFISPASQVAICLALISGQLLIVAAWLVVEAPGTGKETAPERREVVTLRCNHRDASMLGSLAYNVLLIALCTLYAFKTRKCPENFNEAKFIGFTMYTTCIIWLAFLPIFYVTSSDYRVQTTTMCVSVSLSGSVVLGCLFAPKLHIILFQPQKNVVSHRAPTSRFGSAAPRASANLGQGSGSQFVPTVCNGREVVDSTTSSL

For the molecule `O=C(Nc1cccc(S(=O)(=O)N2CCOCC2)c1)c1cnn2c(C(F)(F)F)cc(-c3ccc(C(F)(F)F)cc3)nc12` [Example 1, 7-Trifluoromethyl-5-(4-trifluoromethyl-phenyl)-pyrazolo[1,5-a]pyrimidine-3-carboxylic acid[3-(morpholine-4-sulfonyl)-phenyl]-amide], the melting point (commonly the temperature of the solid-liquid transition) turned out to be 233 °C. Also, affinity on rat mGlu2 receptor was put at a Ki of 30 nM. `O=C(Nc1cccc(S(=O)(=O)NCC(F)(F)F)c1)c1cnn2c(C(F)F)cc(-c3ccc(C(F)(F)F)cc3)nc12` [Example 52, 7-Difluoromethyl-5-(4-trifluoromethyl-phenyl)-pyrazolo[1,5-a]pyrimidine-3-carboxylic acid [3-(2,2,2-trifluoro-ethylsulfamoyl)-phenyl]-amide] returned a melting point of 257 °C. Molecule `O=C(Nc1cccc(S(=O)(=O)NCC2CC2)c1)c1cnn2c(C(F)F)cc(-c3ccc(C(F)(F)F)cc3)nc12` [Example 73, 7-Difluoromethyl-5-(4-trifluoromethyl-phenyl)-pyrazolo[1,5-a]pyrimidine-3-carboxylic acid [3-(cyclopropylmethyl-sulfamoyl)-phenyl]-amide] came in with a melting point of 238 °C. Turning to `O=C(Nc1cccc(S(=O)(=O)Nc2ccccc2)c1)c1cnn2c(C(F)F)cc(-c3ccc(C(F)(F)F)cc3)nc12` [Example 74, 7-Difluoromethyl-5-(4-trifluoromethyl-phenyl)-pyrazolo[1,5-a]pyrimidine-3-carboxylic acid(3-phenylsulfamoyl-phenyl)-amide], the melting point stood at 228 °C. Besides, at rat mGlu2 receptor, the Ki (commonly a dissociation constant, usually derived from enzyme kinetics or from competition with a known ligand) was found to be 67 nM. The corresponding values for `NS(=O)(=O)c1cccc(NC(=O)c2cnn3c(C(F)F)cc(-c4ccc(C(F)(F)F)c(OCC(F)(F)F)c4)nc23)c1` [Example 79, 7-Difluoromethyl-5-[3-(2,2,2-trifluoro-ethoxy)-4-trifluoromethyl-phenyl]-pyrazolo[1,5-a]pyrimidine-3-carboxylic acid(3-sulfamoyl-phenyl)-amide] are 241 °C and 11 nM. Turning to `O=C(Nc1cccc(S(=O)(=O)NCCO)c1)c1cnn2c(C(F)F)cc(-c3ccc(C(F)(F)F)cc3)nc12` [Example 83, 7-Difluoromethyl-5-(4-trifluoromethyl-phenyl)-pyrazolo[1,5-a]pyrimidine-3-carboxylic acid [3-(2-hydroxy-ethylsulfamoyl)-phenyl]-amide], the melting point turned out to be 231 °C. With `O=C(Nc1cccc(S(=O)(=O)NCc2ccncc2)c1)c1cnn2c(C(F)F)cc(-c3ccc(C(F)(F)F)cc3)nc12` [Example 88, 7-Difluoromethyl-5-(4-trifluoromethyl-phenyl)-pyrazolo[1,5-a]pyrimidine-3-carboxylic acid {3-[(pyridin-4-ylmethyl)-sulfamoyl]-phenyl}-amide], the melting point was determined as 221 °C. The Ki at rat mGlu2 receptor came out at 15 nM. On to `O=C(Nc1cccc(S(=O)(=O)CCO)c1)c1cnn2c(C(F)F)cc(-c3ccc(C(F)(F)F)cc3)nc12` [Example 90, 7-Difluoromethyl-5-(4-trifluoromethyl-phenyl)-pyrazolo[1,5-a]pyrimidine-3-carboxylic acid [3-(2-hydroxy-ethanesulfonyl)-phenyl]-amide], for which the melting point was 205 °C. On the same count and under the same terms, the result for `O=C(Nc1cccc(S(=O)(=O)NCc2cccnc2)c1)c1cnn2c(C(F)F)cc(-c3ccc(C(F)(F)F)cc3)nc12` [Example 106, 7-Difluoromethyl-5-(4-trifluoromethyl-phenyl)-pyrazolo[1,5-a]pyrimidine-3-carboxylic acid {3-[(pyridin-3-ylmethyl)-sulfamoyl]-phenyl}-amide] reads 256 °C. `CN(C)CCNS(=O)(=O)c1cccc(NC(=O)c2cnn3c(C(F)F)cc(-c4ccc(C(F)(F)F)cc4)nc23)c1` [Example 144, 7-Difluoromethyl-5-(4-trifluoromethyl-phenyl)-pyrazolo[1,5-a]pyrimidine-3-carboxylic acid[3-(2-dimethylamino-ethylsulfamoyl)-phenyl]-amide] showed a melting point of 184 °C. On rat mGlu2 receptor, this molecule registered a Ki of 7 nM.
